The test system of assay [1] is AKT and Foxo1 phosphorylation. Nature of the assay: Immunoblot of AKT signaling in peptide-treated xenograft tumors. Type of assay: in vivo, mice. On the procedure:
FIG. 6 is an immunoblot illustrating the stapled mutant peptide inhibits AKT signaling in xenograft tumors.
Five-week-old male athymic nude mice were injected with 5 million cells subcutaneously and bilaterally. When tumor sizes reached 100-150 mm^3, 10 mice with similar sized tumors on both flanks were selected. The left flank tumors were injected with stapled WT p110α peptide, whereas the right flank tumors were injected with stapled p110α E545K mutant peptide. Each tumor was injected with 250 μg of peptide daily for 14 days. Control xenograft tumors were injected with an equal volume of water. The tumor sizes were measured every 2 days.

In a further assay the test system is AKT phosphorylation. Description: Immunoblot of AKT phosphorylation in cancer cell lines treated with stapled peptides. Type of assay: cell-based, human. Also on record: AKT phosphorylation / AKT phosphorylation at both T308 and 5473 residues: dose or concentration left out as unconfirmed. On the procedure:
(§1) FIGS. 3(A-M) illustrate: (A, B) Mapping peptides (P3, SEQ ID NO: 1; P4 SEQ ID NO: 2; P5, SEQ ID NO: 3; P6, SEQ ID NO: 4) derived from mutant p110α that inhibit interaction between IRS1 and p110α E545K. The indicated peptides were added into cell lysates made from the p110α E545K 3×FLAG KI cells. Cell lysates were immunoprecipitated with beads conjugated with anti-FLAG antibodies and then blotted with anti-IRS1 antibodies. (C) Immunoblots of cell lysates made from the p110α E545K 3×FLAG KI cells. Cell lysates were immunoprecipitated with beads conjugated with anti-FLAG antibodies and then blotted with the indicated antibodies. (D) Immunoblots of cell lysate of Myc-tagged IRS1 plasmid, which co-transfected an ABD domain deletion construct of the FLAG-tagged p110α E545K mutant (ΔABD), incubated with the indicated amount of stapled p110α mutant peptides, and then immunoprecipitated with anti-FLAG antibodies and blotted with the indicated antibodies. (J, K) Immunoblot and graph of purified recombinant p110α E545K mutant proteins mixed with the indicated components and quantified using an in vitro lipid kinase assay. (L, M) Immunoblots of the indicated cell lines serum-starved, stimulated with 1 μg/ml insulin for 30 min, and then treated with or without the indicated peptides. Cell lysates were blotted with the indicated antibodies. All error bars show mean±SEM. *p<0.05, **p<0.001, t test.
FIG. 4(A-F) illustrate: (A) Schematic diagram of linear and stapled WT and mutant peptides derived from p110α (SEQ ID NOs: 5, 6, 7 and 8). (B) Immunoblots of cell lysates immunoprecipitated with beads conjugated with anti-FLAG antibodies and then blotted with the indicated antibodies. Linear or stapled WT and mutant peptide were added into culture medium of the p110α E545K 3×FLAG KI cells for 16 hr. (C) Immunoblots of cell lysates immunoprecipitated with anti-p110α antibodies and then blotted with the indicated antibodies. Vaco481 CRC cells were treated with the stapled mutant peptides at the indicated concentration. (D) Immunoblots of cell lysates blotted with the indicated antibodies. The indicated cell lines were treated with the stapled mutant peptide. (E) Immunoblots of cell lysates blotted with the indicated antibodies. The indicated cancer cell lines were treated or untreated with stapled WT or mutant peptide at […] for 2 hr. (F) Immunoblots of cell lysates were blotted with the indicated antibodies. The indicated cancer cell lines were treated with or without […] of stapled mutant peptide for 2 hr.
Colorectal cancer (CRC) cell lines DLD1, HCT116, Vaco481 and genetically engineered CRC cell lines were maintained in McCoy's 5A medium containing 10% fetal bovine serum (FBS). Lung cancer cell line H460 and breast cancer cell line T47D were cultured in RPMI 1640 medium plus 10% of FBS. Breast cancer cell line MDA-MB361 was maintained in Leibovitz's L-15 medium with 20% FBS. Human embryonic kidney HEK293 cells were cultured in DMEM medium containing 10% FBS. Mammalian cells were transfected with Lipofectamine in accordance with the manufacturer's instructions (Invitrogen).
For Co-immunoprecipitation (Co-IP), cells were harvested, washed with PBS, and then lysed in IP buffer (50 mMTris [pH 7.4], 150 mMNaCl, 5 mMEDTA [pH 8.0], 0.5% NP40, 1 mM PMSF, complete Protease Inhibitor Cocktail tablet [Roche]; supplemented with phosphatase inhibitors [1 mM Na3VO4, 20 mM NaF, 0.1 mM b-glycerophosphate, 20 mM sodium pyrophosphate] when necessary). For immunoblotting (IB) of phospho-specific proteins, unless stated otherwise, cells were lysed in urea buffer (100 mM NaH2PO4, 10 mM Tris-HCl, 8 M Urea, 1 mM Na3VO4, 20 mM NaF, 0.1 mM β-glycerophosphate, 20 mM sodium pyrophosphate, supplemented with complete Protease Inhibitor Cocktail tablet [Roche], pH 8.0). Lysates were then cleared by centrifugation (14,000 rpm, 10 min) and protein concentration in supernatants was determined with a BCA protein assay kit (Pierce, Rockford, Ill.). […]

Assay [2] has as its target T1, recombinant p110α E545K mutant protein (Homo sapiens, UniProt P42336, E545K).
T1 construct: 6×His; made in house; host or cells: Sf9 insect cells (baculovirus)
Description: In vitro lipid kinase assay. In kind it is biochemical. The note with it: either alone or in the presence of IRS1. On the procedure: as §1, with “test. […]” for “test.”

The mark [3] stands for this setting: peptide-treated xenograft tumors.

This is an account of results in patent US20140005119A1, “COMPOSITIONS AND METHODS FOR INHIBITING THE ACTIVITY OF P110a MUTANT PROTEINS” (Case Western Reserve University, priority 2012, published 2014).

T1 sequence (P42336 whole entry E545K): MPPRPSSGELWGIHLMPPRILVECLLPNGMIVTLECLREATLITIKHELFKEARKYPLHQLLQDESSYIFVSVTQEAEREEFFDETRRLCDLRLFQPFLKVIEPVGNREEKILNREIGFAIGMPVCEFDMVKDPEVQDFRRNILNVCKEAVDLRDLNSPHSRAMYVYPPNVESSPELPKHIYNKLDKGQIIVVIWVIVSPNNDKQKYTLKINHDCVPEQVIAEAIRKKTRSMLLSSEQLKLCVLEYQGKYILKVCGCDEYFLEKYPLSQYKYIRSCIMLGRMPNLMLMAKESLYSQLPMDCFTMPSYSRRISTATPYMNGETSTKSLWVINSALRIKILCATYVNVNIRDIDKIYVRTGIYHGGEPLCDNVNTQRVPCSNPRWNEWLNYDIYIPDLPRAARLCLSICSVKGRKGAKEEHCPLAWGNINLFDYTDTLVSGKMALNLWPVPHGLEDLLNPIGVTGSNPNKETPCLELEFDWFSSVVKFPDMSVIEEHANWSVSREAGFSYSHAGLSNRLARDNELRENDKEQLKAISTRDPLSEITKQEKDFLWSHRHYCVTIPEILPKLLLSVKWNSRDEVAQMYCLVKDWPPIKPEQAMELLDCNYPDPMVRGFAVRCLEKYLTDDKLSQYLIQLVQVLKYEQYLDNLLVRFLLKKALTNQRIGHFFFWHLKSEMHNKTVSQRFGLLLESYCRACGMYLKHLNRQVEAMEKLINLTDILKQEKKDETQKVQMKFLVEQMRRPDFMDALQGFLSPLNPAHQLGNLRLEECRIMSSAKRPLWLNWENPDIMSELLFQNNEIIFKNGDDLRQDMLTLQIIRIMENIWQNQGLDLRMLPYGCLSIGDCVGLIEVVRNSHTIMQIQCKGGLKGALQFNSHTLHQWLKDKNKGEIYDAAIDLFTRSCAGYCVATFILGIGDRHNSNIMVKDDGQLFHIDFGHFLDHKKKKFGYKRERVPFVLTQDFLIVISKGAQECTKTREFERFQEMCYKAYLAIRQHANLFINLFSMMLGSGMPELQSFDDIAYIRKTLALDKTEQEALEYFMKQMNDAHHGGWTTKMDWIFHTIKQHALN
T1 sequence (P27986 322-600 partner limits assumed): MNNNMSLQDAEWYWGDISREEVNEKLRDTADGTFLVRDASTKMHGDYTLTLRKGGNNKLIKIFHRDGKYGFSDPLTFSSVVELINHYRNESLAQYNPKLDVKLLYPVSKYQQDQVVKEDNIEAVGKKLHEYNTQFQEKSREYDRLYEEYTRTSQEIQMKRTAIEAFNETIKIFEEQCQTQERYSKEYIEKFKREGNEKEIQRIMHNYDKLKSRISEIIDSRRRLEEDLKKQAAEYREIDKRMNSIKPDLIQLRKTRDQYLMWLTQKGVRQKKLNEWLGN

For “H2N-SEITKQEK-D^549-FLW-S^553-HRHYC-COOH [stapled mutant peptide]”, in assay [1] (FIG. 6 legend), the “AKT signaling in xenograft tumors” value was “inhibits”. For the same substance, in assay [1] (setting [3]), the “AKT and Foxo1 phosphorylation in xenograft tumors” value is “reduced”. Further, in assay [1] (setting [3]), the “AKT phosphorylation at T308 and S473 residues in xenograft tumors” value was “only decreased AKT phosphorylation at the S473 residue”. Also, the “AKT phosphorylation at both T308 and 5473 residues” value in the assay with AKT phosphorylation (DLD1 cells harboring p110α E545K), in the assay on AKT phosphorylation (H460 cells harboring p110α E545K), in the assay with AKT phosphorylation (MDA-MB361 cells harboring p110α E545K) and in the assay with AKT phosphorylation (Vaco481 cell line harboring p110α Q546P) was “reduced” each time. Also, the AKT phosphorylation entry was “no effect” with AKT phosphorylation (HCT116 cells harboring p110α H1047R); “no effect” in the assay on AKT phosphorylation (RKO cells harboring p110α H1047R); “no effect” with AKT phosphorylation (T47D cells harboring p110α H1047R); “did not affect” in the assay with AKT phosphorylation (WT-only DLD1 cells); “reduced” with AKT phosphorylation (mutant-only DLD1 cells). The “AKT phosphorylation when cell lines were stimulated by insulin” value in the assay with AKT phosphorylation (serum-starved, 1 μg/ml insulin for 30 min) was “no effect”. Further, the “AKT phosphorylation in cancer cells” value in the assay on AKT phosphorylation (summary statement on FIG. 4) was “reduced”. Further, in assay [2], the “kinase activity of recombinant p110α” value is listed as “no effect”.
